Test results as given in ChEMBL document CHEMBL5154816, “Structure-Based Discovery and Optimization of Furo[3,2-c]pyridin-4(5H)-one Derivatives as Potent and Second Bromodomain (BD2)-Selective Bromo and Extra Terminal Domain (BET) Inhibitors” (J Med Chem, 2022).
pIC50: −log10 of the molar value.

Assays:
[1] = molecular target: T1, Bromodomain-containing protein 4 (Homo sapiens, UniProt O60885); test: Inhibition of C-terminal His6-tagged BRD4 BD1 (unknown origin) using H-YSGRGK(Ac)GGK(Ac)GLGK(Ac)-GGAK(Ac)RHRK-Biotin-OH as substrate incubated for 1 hrs by HTRF assay
[2] = molecular target: T1, Bromodomain-containing protein 4; test: Inhibition of C-terminal His6-tagged BRD4 BD2 (unknown origin) using H-YSGRGK(Ac)GGK(Ac)GLGK(Ac)-GGAK(Ac)RHRK-Biotin-OH as substrate incubated for 1 hrs by HTRF assay
Homo sapiens = species on record: Homo sapiens; test: Selectivity index, ratio of IC50 for BRD4 BD1 (unknown origin) to IC50 of BRD4 BD2 (unknown origin)
[3] = Metabolic stability in human liver microsomes assessed as half life at 1 uM measured up to 60 mins in presence of NADPH by HPLC-MS/MS analysis; type: ADME, Microsome
[4] = Metabolic stability in human hepatocytes assessed as hepatic clearance at 1 uM measured up to 60 mins in presence of NADPH by HPLC-MS/MS analysis; type: ADME, cell-based, Hepatocyte
[5] = Metabolic stability in rat hepatocytes assessed as hepatic clearance at 1 uM measured up to 60 mins in presence of NADPH by HPLC-MS/MS analysis; type: ADME, cell-based, Hepatocyte
[6] = Metabolic stability in human hepatocytes assessed as hepatic extraction ratio at 1 uM measured up to 60 mins in presence of NADPH by HPLC-MS/MS analysis; type: ADME, cell-based, Hepatocyte; conditions: read-out: ERH
[7] = Metabolic stability in rat liver microsomes assessed as intrinsic clearance at 1 uM measured up to 60 mins in presence of NADPH by HPLC-MS/MS analysis; type: ADME, Microsome; conditions: 1 h
[8] = Metabolic stability in human liver microsomes assessed as intrinsic clearance at 1 uM measured up to 60 mins in presence of NADPH by HPLC-MS/MS analysis; type: ADME, Microsome; conditions: 1 h
[9] = Metabolic stability in rat hepatocytes assessed as hepatic extraction ratio at 1 uM measured up to 60 mins in presence of NADPH by HPLC-MS/MS analysis; type: ADME, cell-based, Hepatocyte; conditions: read-out: ERH
[10] = Metabolic stability in rat liver microsomes assessed as half life at 1 uM measured up to 60 mins in presence of NADPH by HPLC-MS/MS analysis; type: ADME, Microsome
[11] = molecular target: SWI/SNF-related matrix-associated actin-dependent regulator of chromatin subfamily A member 2 (Homo sapiens) (UniProt P51531); test: Binding affinity to SMARCA2B (unknown origin) assessed as change in melting temperature at 100 uM incubated for 30 mins by thermal shift assay
Chain of SWI/SNF-related matrix-associated actin-dependent regulator of chromatin subfamily A member 2 (Homo sapiens) (P51531 whole entry): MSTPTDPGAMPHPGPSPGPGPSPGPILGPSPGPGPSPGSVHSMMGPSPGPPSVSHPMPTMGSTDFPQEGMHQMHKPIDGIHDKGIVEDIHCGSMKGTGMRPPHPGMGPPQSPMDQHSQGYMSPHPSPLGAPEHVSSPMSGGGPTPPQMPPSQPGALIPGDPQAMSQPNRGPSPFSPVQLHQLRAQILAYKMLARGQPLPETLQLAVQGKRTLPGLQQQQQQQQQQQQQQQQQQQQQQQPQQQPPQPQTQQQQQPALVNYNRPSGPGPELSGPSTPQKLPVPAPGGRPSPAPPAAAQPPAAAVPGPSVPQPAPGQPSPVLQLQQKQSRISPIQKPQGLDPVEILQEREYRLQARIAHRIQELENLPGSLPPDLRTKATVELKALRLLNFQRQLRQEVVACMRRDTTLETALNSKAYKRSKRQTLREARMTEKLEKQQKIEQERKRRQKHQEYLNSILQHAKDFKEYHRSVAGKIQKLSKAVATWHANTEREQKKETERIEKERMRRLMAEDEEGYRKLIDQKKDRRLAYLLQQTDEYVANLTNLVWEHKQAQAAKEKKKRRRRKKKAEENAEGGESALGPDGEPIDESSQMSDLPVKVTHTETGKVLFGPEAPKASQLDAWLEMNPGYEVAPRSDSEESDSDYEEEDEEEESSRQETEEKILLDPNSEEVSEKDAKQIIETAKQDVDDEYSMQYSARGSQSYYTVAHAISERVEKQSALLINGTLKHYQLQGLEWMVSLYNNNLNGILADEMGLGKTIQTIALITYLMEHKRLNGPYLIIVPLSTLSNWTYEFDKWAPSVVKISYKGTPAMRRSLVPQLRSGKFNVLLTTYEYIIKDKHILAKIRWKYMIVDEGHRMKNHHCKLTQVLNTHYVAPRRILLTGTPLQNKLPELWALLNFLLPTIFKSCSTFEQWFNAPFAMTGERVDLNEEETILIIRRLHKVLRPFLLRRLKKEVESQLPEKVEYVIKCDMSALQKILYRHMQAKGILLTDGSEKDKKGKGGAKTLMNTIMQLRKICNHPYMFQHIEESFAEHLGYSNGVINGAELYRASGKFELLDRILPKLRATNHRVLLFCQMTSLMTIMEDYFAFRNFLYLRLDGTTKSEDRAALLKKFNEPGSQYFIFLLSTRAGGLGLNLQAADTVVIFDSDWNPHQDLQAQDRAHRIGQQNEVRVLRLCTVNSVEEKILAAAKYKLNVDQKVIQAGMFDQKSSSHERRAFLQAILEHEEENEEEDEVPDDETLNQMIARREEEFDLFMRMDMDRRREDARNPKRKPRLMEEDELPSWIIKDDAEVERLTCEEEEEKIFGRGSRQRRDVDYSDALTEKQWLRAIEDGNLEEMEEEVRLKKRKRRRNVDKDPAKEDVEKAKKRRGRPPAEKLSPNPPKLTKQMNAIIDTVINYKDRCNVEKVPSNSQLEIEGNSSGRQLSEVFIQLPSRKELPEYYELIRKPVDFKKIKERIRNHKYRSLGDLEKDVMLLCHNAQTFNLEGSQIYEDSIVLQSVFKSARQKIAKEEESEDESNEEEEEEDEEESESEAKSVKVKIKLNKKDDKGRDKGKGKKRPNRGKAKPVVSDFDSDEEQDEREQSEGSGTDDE

[12] = molecular target: SWI/SNF-related matrix-associated actin-dependent regulator of chromatin subfamily A member 2 (Homo sapiens) (UniProt P51531); test: Binding affinity to SMARCA2A (unknown origin) assessed as change in melting temperature at 100 uM incubated for 30 mins by thermal shift assay
[13] = molecular target: PH-interacting protein (Homo sapiens) (UniProt Q8WWQ0); test: Binding affinity to PHIP-2 (unknown origin) assessed as change in melting temperature at 100 uM incubated for 30 mins by thermal shift assay
[14] = Cytotoxicity against human HFL1 cells assessed as cell growth inhibition incubated for 72 hrs by Cell titre Glo-luminiscence cell viability assay; type: toxicity, cell-based

Structure (SMILES) | pIC50 [1] | pIC50 [2] | Ratio IC50 (Homo sapiens) | other results
CCC(=O)Nc1ccc(Oc2ccc(F)cc2F)c(-c2cn(C)c(=O)c3cc(-c4cc(C)c(OCCO)c(C)c4)oc23)c1 | 8.64 | 9.14 | 3.19 | –
CCS(=O)(=O)Nc1ccc(Oc2c(C)cccc2C)c(-c2cn(C)c(=O)c3cc(-c4cc(C)c(OCCO)c(C)c4)oc23)c1 | 8.22 | 8.89 | 4.62 | –
O=C(c1ccc(F)cc1)C1CCN(CCn2c(=O)[nH]c3ccccc3c2=O)CC1 [KETANSERIN] | – | – | – | half-life at 1 µM [3]: 34 min; CLhep predicted at 1 µM [4]: 14.7 mL/min/kg; CLhep predicted at 1 µM [5]: 25 mL/min/kg; hepatic extraction ratio at 1 h, 1 µM [6]: 0.712; CLH [7]: 0.131 mL/min/g; CLH [8]: 0.051 mL/min/g; hepatic extraction ratio at 1 h, 1 µM [9]: 0.81; half-life at 1 µM [10]: 18.9 min
CCS(=O)(=O)Nc1ccc(Oc2ccc(F)cc2F)c(-c2cn(C)c(=O)c3cc(-c4cnc(C)[nH]4)oc23)c1 | 9.28 | 9.12 | 0.7 | –
Cc1cc(F)cc(C)c1Oc1ccc(C(C)(C)O)cc1-c1cn(C)c(=O)c2cc(-c3cnc(C4CCOC4)[nH]3)oc12 (centres undefined) | 7.11 | 9.22 | 130 | –
CCS(=O)(=O)Nc1ccc(Oc2ccc(F)cc2F)c(-c2cn(C)c(=O)c3cc(-c4ccc(CCCO)cc4)oc23)c1 | 9.12 | 9.39 | 1.83 | –
Cc1sc2c(c1C)C(c1ccc(Cl)cc1)=N[C@@H](CC(=O)OC(C)(C)C)c1nnc(C)n1-2 | – | – | – | ΔTm [11]: 0.25 °C; ΔTm [12]: -0.25 °C; ΔTm [13]: -1 °C
CCS(=O)(=O)Nc1ccc(Oc2ccc(F)cc2F)c(-c2cn(C)c(=O)c3cc(-c4cc(C)c(OCCO)c(C)c4)oc23)c1 | 9.25 | 9.22 | 0.93 | IC50 at 72 h [14]: < 10 nM
CC(=O)Nc1ccc(Oc2ccc(F)cc2F)c(-c2cn(C)c(=O)c3cc(-c4cc(C)c(OCCO)c(C)c4)oc23)c1 | 9.28 | 9.08 | 0.63 | –
CCS(=O)(=O)Nc1ccc(Oc2ccc(F)cc2F)c(-c2cn(C)c(=O)c3cc(-c4cnc(C(C)C)[nH]4)oc23)c1 | 9.02 | 9.27 | 1.76 | –
CCS(=O)(=O)Nc1ccc(Oc2ccc(F)cc2F)c(-c2cn(C)c(=O)cc2OCc2ccccc2)c1 | – | 9.04 | – | –
CCS(=O)(=O)Nc1ccc(Oc2ccc(F)cc2F)c(-c2cn(C)c(=O)c3cc(-c4cc(C)cc(C)c4)oc23)c1 | 8.21 | 8.43 | 1.65 | –
CCS(=O)(=O)Cc1ccc(Oc2ccc(F)cc2F)c(-c2cn(C)c(=O)c3cc(-c4cc(C)c(OCCO)c(C)c4)oc23)c1 | 9.48 | 9.26 | 0.6 | –
Cc1cc(-c2cc3c(=O)n(C)cc(-c4cc(C(C)(C)O)ccc4Oc4ccc(F)cc4F)c3o2)cc(C)c1OCCO | 8.80 | 9.35 | 3.5 | –
CCS(=O)(=O)Nc1ccc(Oc2ccc(F)cc2F)c(-c2cn(C)c(=O)c3cc(-c4cnc(C5CC5)[nH]4)oc23)c1 | 9.15 | 9.47 | 2.06 | –
CCc1cccc(CC)c1Oc1ccc(NS(=O)(=O)CC)cc1-c1cn(C)c(=O)c2cc(-c3cc(C)c(OCCO)c(C)c3)oc12 | 7.21 | 8.01 | 6.29 | –
CCS(=O)(=O)Nc1ccc(Oc2ccc(F)cc2F)c(-c2cn(C)c(=O)c3cc(-c4cnc[nH]4)oc23)c1 | 8.92 | 9.29 | 2.35 | –
Cc1cc(-c2cc3c(=O)n(C)cc(-c4cc(NS(=O)(=O)C5CC5)ccc4Oc4ccc(F)cc4F)c3o2)cc(C)c1OCCO | 9.00 | 9.00 | 1 | –
CCc1cccc(C)c1Oc1ccc(NS(=O)(=O)CC)cc1-c1cn(C)c(=O)c2cc(-c3cc(C)c(OCCO)c(C)c3)oc12 | 8.00 | 8.85 | 7.14 | –
CCS(=O)(=O)Nc1ccc(Oc2c(C)cc(F)cc2C)c(-c2cn(C)c(=O)c3cc(-c4cc(C)c(OCCO)c(C)c4)oc23)c1 | 8.19 | 9.10 | 8.12 | –

Structure (SMILES) | pIC50 [1] | pIC50 [2] | Ratio IC50 (Homo sapiens) | other results
Cc1cc(-c2cc3c(=O)n(C)cc(-c4cc(NC(=O)C(C)C)ccc4Oc4ccc(F)cc4F)c3o2)cc(C)c1OCCO | 8.11 | 8.72 | 4.11 | –
CCc1ncc(-c2cc3c(=O)n(C)cc(-c4cc(NS(=O)(=O)CC)ccc4Oc4ccc(F)cc4F)c3o2)[nH]1 | 8.92 | 9.30 | 2.4 | –
Cc1cc(-c2cc3c(=O)n(C)cc(-c4cc(CO)ccc4Oc4ccc(F)cc4F)c3o2)cc(C)c1OCCO | 8.39 | 9.01 | 4.18 | –
CCS(=O)(=O)Nc1ccc(Oc2ccc(F)cc2F)c(-c2cn(C)c(=O)c3cc(-c4cnc(C5CCC5)[nH]4)oc23)c1 | 8.70 | 9.03 | 2.13 | –
Cc1cc(-c2cc3c(=O)n(C)cc(-c4cc(NC(=O)C5CC5)ccc4Oc4ccc(F)cc4F)c3o2)cc(C)c1OCCO | 8.17 | 8.49 | 2.12 | –
CCS(=O)(=O)Nc1ccc(Oc2ccc(F)cc2F)c(-c2cn(C)c(=O)c3cc(-c4cnc(C5CCCC5)[nH]4)oc23)c1 | 8.39 | 9.04 | 4.52 | –
Cc1cc(-c2cc3c(=O)n(C)cc(-c4cc(CS(=O)(=O)C(C)C)ccc4Oc4ccc(F)cc4F)c3o2)cc(C)c1OCCO | 9.24 | 9.21 | 0.92 | –
Cc1cc(F)cc(C)c1Oc1ccc(C(C)(C)O)cc1-c1cn(C)c(=O)c2cc(-c3cnc(C4CCOCC4)[nH]3)oc12 | 7.22 | 9.34 | 130 | –
Cc1cc(-c2cc3c(=O)n(C)cc(-c4cc(C(C)(C)O)ccc4Oc4c(C)cc(F)cc4C)c3o2)cc(C)c1OCCCO | 7.20 | 8.85 | 45 | –
CCS(=O)(=O)Nc1ccc(Oc2c(OC)cccc2OC)c(-c2cn(C)c(=O)c3cc(-c4cc(C)c(OCCO)c(C)c4)oc23)c1 | 8.01 | 8.70 | 4.9 | –
Cc1cc(-c2cc3c(=O)n(C)cc(-c4cc(NS(=O)(=O)C(C)C)ccc4Oc4ccc(F)cc4F)c3o2)cc(C)c1OCCO | 8.85 | 9.03 | 1.49 | –
CCc1ncc(-c2cc3c(=O)n(C)cc(-c4cc(C(C)(C)O)ccc4Oc4c(C)cc(F)cc4C)c3o2)[nH]1 | 6.92 | 9.22 | 202 | –
Cc1cc(-c2cc3c(=O)n(C)cc(-c4cc(CS(=O)(=O)C(C)(C)C)ccc4Oc4ccc(F)cc4F)c3o2)cc(C)c1OCCO | 8.48 | 8.85 | 2.36 | –
Cc1cc(-c2cc3c(=O)n(C)cc(-c4cc(NS(C)(=O)=O)ccc4Oc4ccc(F)cc4F)c3o2)cc(C)c1OCCO | 9.41 | 9.12 | 0.51 | –
CCS(=O)(=O)Nc1ccc(Oc2ccc(F)cc2F)c(-c2cn(C)c(=O)c3cc(-c4cc(C)c(CCCO)c(C)c4)oc23)c1 | 9.14 | 9.31 | 1.47 | –
CCCS(=O)(=O)Nc1ccc(Oc2ccc(F)cc2F)c(-c2cn(C)c(=O)c3cc(-c4cc(C)c(OCCO)c(C)c4)oc23)c1 | 9.03 | 9.19 | 1.54 | –
Cc1cc(F)cc(C)c1Oc1ccc(C(C)(C)O)cc1-c1cn(C)c(=O)c2cc(-c3cnc(C(C)C)[nH]3)oc12 | 6.72 | 9.17 | 282 | –
CCS(=O)(=O)Nc1ccc(Oc2ccc(F)cc2F)c(-c2cn(C)c(=O)c3cc(-c4ccc(OCCO)cc4)oc23)c1 | 9.25 | 9.21 | 0.9 | –
CCS(=O)(=O)Nc1ccc(Oc2c(F)cc(F)cc2F)c(-c2cn(C)c(=O)c3cc(-c4cc(C)c(OCCO)c(C)c4)oc23)c1 | 9.37 | 9.31 | 0.88 | –
CCS(=O)(=O)Nc1ccc(Oc2ccc(F)cc2F)c(-c2cn(C)c(=O)c3cc(-c4ccccc4)oc23)c1 | 8.62 | 8.82 | 1.6 | –
